Measurements from patent publication EP3725756A2, “COMPOSITIONS WITH IMPROVED UREASE-INHIBITING EFFECT COMPRISING AMINES, OR COLORANTS, AND AN ADDUCT OF THE THREE COMPOUNDS N-(N-BUTYL) THIOPHOSPHORIC ACID TRIAMIDE (NBPT), UREA, AND FORMALDEHYDE” (BASF SE, priority 2019, dated 2020).

Assay: physchem
Type: physicochemical
Description: "Not dissociable" means that the pKa value (logarithmic measure of the acid dissociation constant) for the reaction alcohol (D) → deprotonated alcohol (D) + H^+ of the hydroxy group in the neutral aqueous phase is more than 9.9, more preferably more than 11, most preferably more than 12, particularly preferably more than 13, for example more than 14 as measured in de-ionized water at 25° C and atmospheric pressure.

CC(O)CO (stereo not shown) [propane-1,2-diol]
pKa: 14.9
